This note sets out measurements from patent US7872002B2, “Therapeutic pyrazoloquinoline derivatives” (Helicon Therapeutics, Inc., priority 2007, dated 2011).

The experiment deals with GABAA central benzodiazepine receptor. Put plainly: Benzodiazepine Binding Assay ((3H)-flunitrazepam, rat whole brain except cerebellum). To be noted: read-out: BZ binding assay (IC50); 1 nM (3H)-flunitrazepam, 60 minutes at 25° C., pH 7.4; with or without 30 μM GABA.

Molecules are shown by their SMILES.

In the case of `O=c1c2c[nH]c3c(N4CCOCC4)cc(N4CCOCC4)cc3c-2nn1-c1ccccc1` [Compound 58a, 6,8-Bis(morpholin-4-yl)-2-phenyl-2,5-dihydro-pyrazolo[4,3-c]quinolin-3-one], the IC50 (usually the point on the concentration scale where inhibition reaches its midpoint) was in the range of 0.001 to 1 µM.

Regarding `CC(C)N1CCN(c2cc(N3CCN(C(C)C)CC3)c3[nH]cc4c(=O)n(-c5ccccc5)nc-4c3c2)CC1` [Compound 58b, 6,8-Bis(4-iso-propylpiperazin-1-yl)-2-phenyl-2,5-dihydro-pyrazolo[4,3-c]quinolin-3-one], the IC50 fell in the range of 0.001 to 1 µM.
